{"source": "patent US20190119193A1", "about": "“COMPOSITION FOR REGULATING PLANT GROWTH, METHOD FOR TREATING PLANTS THEREWITH, AND ACTIVE INGREDIENT THEREOF” (Ivan Aleksandrovich Starikov, priority 2016, published 2019)", "system": "spring wheat of “Lubava” variety", "assay": "Field tests of DMOA and DEOA on wheat", "format": "in vivo", "settings": "for Effect on wheat growth, yield and quality (in words): aqueous solutions in the proposed concentrations, field test under stress (abundant rainfalls)", "method": "After that DMOA and DEOA were separately dissolved in dimethyl sulfoxide to give solutions of 10 g/L concentration, then water was added to give aqueous solutions of DMOA with the concentrations of 5.5·10^−8 M, 5.5·10^−9 M, 1.8·10^−9 M, 5.5·10^−10 M, 1.8·10^−10 M, 1.8·10^−11 M, and DEOA with the concentrations of 4.8·10^−8 M, 4.8·10^−9 M, […], 4.8·10^−10 M, 1.6·10^−10 M, 1.6·10^−11 M.\nThe field tests of the obtained aqueous solutions of DMOA and DEOA on spring wheat of “Lubava” variety were carried out. The tests were carried out in agroclimatic zone I, on the experimental field of the Grain Crops Protection Systems Laboratory of the Agricultural Research Center of Federal State Budgetary Scientific Institution “Moscow Research Institute of Agriculture” “Nemchinovka” “(Moscow Region, Odintsovo district, settlement Novoivanovskaya, 2015) according to the method adopted for registration tests of plant growth regulators (Guidelines for conducting registration tests of new forms of fertilizers, bioregulators and plant regulators. Moscow-Vladimir, 2009, p. 104; The method of state variety testing of agricultural crops. Grain, cereal, grain legumes and forage crops. Issue 1, Moscow, 1985, page 269, Issue 2, Moscow, 1989, p. 194; OST 10-108-87; GOST 26212-91; GOST-91).\nThe soil of the experimental field is sod-podzolic on clay loam mantle.\nTests were conducted starting from Apr. 29 to Jul. 30, 2015. In the first half of the growing period the weather conditions were unfavorable (abundant rainfalls in May and June), which is a significant stress factor.\nControl test—without growth regulators treatment.\nArea of experimental plots—100 m^2, accounting area—50 m^2. Fourfold replication of the experiments.\nPreceding crop was winter wheat. Immediately after the autumn harvesting of winter crops the area was treated with disc harrow to a depth of 10-12 cm. Then, fall plowing to a depth of 18-20 cm by a reverse plow, harrowing, and moisture conservation were carried out.\nBefore seeding the test crop, the soil was fertilized with nitrogen-phosphorus-potassium fertilizer in a dose of N64P64K64. Date of sowing: Apr. 29, 2015 Seeding rate: 5.0 million of germinated grains per 1 hectare.\nBefore seeding, all the seeds were treated with “Vincite Forte” fungicide with a consumption rate of 1.0 L per ton of seeds, as well as the aqueous solution of DMOA or DEOA selected for the experiment with a consumption rate of 10 L per ton of seeds (this aqueous solution was directly used as a liquid for treatment) or without a growth regulator, depending on the experiment. The following concentrations of the test solutions were used for treatment: 5.5·10^−8 M, 5.5·10^−9 M and 5.5·10^−10 M of DMOA; 4.8·10^−8 M, 4.8·10^−9 M and 4.8·10^−10 M of DEOA.\nAt the tillering phase (May 23) the crops were sprayed against weeds with “Linthur” herbicide at a dose of 175.0 g/ha, pesticides “BI-58 Novy” were used against pests at a dose of 0.5 L/ha, and against the leaf-stems diseases the crops were sprayed at the early ear emergence stage (June 20) with “Alto Super” fungicide at a dose of 0.5 L/ha together with aqueous solutions of DMOA or DEOA (or without them). Spraying with aqueous solutions of DMOA or DEOA allows to additionally stimulate plant growth. In this case the dosage of aqueous solutions of DMEA or DEOA was 300 L/ha (these solutions were sprayed directly). Spraying with aqueous solutions of DMEA and DEOA was carried out for all variants, where DMOA and DEOA were used for seed treatment. The concentration of the spraying solution was one-thirtieth of the concentration of the solution previously used for treatment of seeds. Accordingly, for DMOA: 1.8·10^−9 M, 1.8·10^−10 M, 1.8·10^−11 M; and for DEOA: 1.6·10^−9 M, 1.6·10^−10 M, 1.6·10^−11 M.\nHarvesting of experimental plots was carried out on July 30, before harvesting test sheaves of 0.25 m^2 of each variant of the experiment were taken for structural analysis. […]", "key": {"[1]": {"settings": "seeds treated 4.8 · 10^−8M, sprayed 1.6·10^−9 M"}, "[2]": {"settings": "seeds treated 4.8 · 10^−9M, sprayed 1.6·10^−10 M"}, "[3]": {"settings": "seeds treated 4.8 · 10^−10M, sprayed 1.6·10^−11 M"}, "[4]": {"settings": "seeds treated 5.5 · 10^−8M, sprayed 1.8·10^−9 M"}, "[5]": {"settings": "seeds treated 5.5 · 10^−9M, sprayed 1.8·10^−10 M"}, "[6]": {"settings": "seeds treated 5.5 · 10^−10M, sprayed 1.8·10^−11 M"}}}
{"compound": "CCOC(=O)C=C([O-])C(=O)OCC.[Na+]", "note": "[DEOA, sodium salt of diethyl ester of oxaloacetic acid]", "values": [{"measurement": "Effect on wheat growth, yield and quality (in words)", "result": "express ability to stimulate growth, increase yield and quality of wheat"}, {"measurement": "1000 grains weight", "setting": "[1]", "result": 48.15, "unit": "g"}, {"measurement": "Gluten", "setting": "[1]", "result": 31.85, "unit": "% dry basis"}, {"measurement": "Main head length", "setting": "[1]", "result": 8.6, "unit": "cm"}, {"measurement": "Number of grains from main head", "setting": "[1]", "result": 39, "unit": "pcs"}, {"measurement": "Number of stems", "setting": "[1]", "result": 612, "unit": "pcs/m^2"}, {"measurement": "Plant height", "setting": "[1]", "result": 101.7, "unit": "cm"}, {"measurement": "Productive tilling capacity", "setting": "[1]", "result": 1.34}, {"measurement": "Protein (N 5.7)", "setting": "[1]", "result": 14.88, "unit": "% dry basis"}, {"measurement": "Starch", "setting": "[1]", "result": 61.15, "unit": "% dry basis"}, {"measurement": "Weight of grains from main head", "setting": "[1]", "result": 1.91, "unit": "g"}, {"measurement": "Yield", "setting": "[1]", "result": 5.50, "unit": "t/ha"}, {"measurement": "Yield, % (comparing to control)", "setting": "[1]", "result": 112.7, "unit": "%"}, {"measurement": "1000 grains weight", "setting": "[2]", "result": 46.88, "unit": "g"}, {"measurement": "Gluten", "setting": "[2]", "result": 32.91, "unit": "% dry basis"}, {"measurement": "Main head length", "setting": "[2]", "result": 9.2, "unit": "cm"}, {"measurement": "Number of grains from main head", "setting": "[2]", "result": 41, "unit": "pcs"}, {"measurement": "Number of stems", "setting": "[2]", "result": 408, "unit": "pcs/m^2"}, {"measurement": "Plant height", "setting": "[2]", "result": 99.4, "unit": "cm"}, {"measurement": "Productive tilling capacity", "setting": "[2]", "result": 1.33}, {"measurement": "Protein (N 5.7)", "setting": "[2]", "result": 14.95, "unit": "% dry basis"}, {"measurement": "Starch", "setting": "[2]", "result": 61.43, "unit": "% dry basis"}, {"measurement": "Weight of grains from main head", "setting": "[2]", "result": 1.96, "unit": "g"}, {"measurement": "Yield", "setting": "[2]", "result": 5.32, "unit": "t/ha"}, {"measurement": "Yield, % (comparing to control)", "setting": "[2]", "result": 109.0, "unit": "%"}, {"measurement": "1000 grains weight", "setting": "[3]", "result": 48.38, "unit": "g"}, {"measurement": "Gluten", "setting": "[3]", "result": 31.61, "unit": "% dry basis"}, {"measurement": "Main head length", "setting": "[3]", "result": 10.8, "unit": "cm"}, {"measurement": "Number of grains from main head", "setting": "[3]", "result": 51, "unit": "pcs"}, {"measurement": "Number of stems", "setting": "[3]", "result": 324, "unit": "pcs/m^2"}, {"measurement": "Plant height", "setting": "[3]", "result": 104.3, "unit": "cm"}, {"measurement": "Productive tilling capacity", "setting": "[3]", "result": 1.69}, {"measurement": "Protein (N 5.7)", "setting": "[3]", "result": 14.14, "unit": "% dry basis"}, {"measurement": "Starch", "setting": "[3]", "result": 61.60, "unit": "% dry basis"}, {"measurement": "Weight of grains from main head", "setting": "[3]", "result": 2.65, "unit": "g"}, {"measurement": "Yield", "setting": "[3]", "result": 5.00, "unit": "t/ha"}, {"measurement": "Yield, % (comparing to control)", "setting": "[3]", "result": 102.5, "unit": "%"}]}
{"compound": "Sodium salt of dimethyl ester of oxaloacetic acid [DMOA]", "values": [{"measurement": "Effect on wheat growth, yield and quality (in words)", "result": "express ability to stimulate growth, increase yield and quality of wheat"}, {"measurement": "1000 grains weight", "setting": "[4]", "result": 46.22, "unit": "g"}, {"measurement": "Gluten", "setting": "[4]", "result": 33.64, "unit": "% dry basis"}, {"measurement": "Main head length", "setting": "[4]", "result": 8.7, "unit": "cm"}, {"measurement": "Number of grains from main head", "setting": "[4]", "result": 36, "unit": "pcs"}, {"measurement": "Number of stems", "setting": "[4]", "result": 420, "unit": "pcs/m^2"}, {"measurement": "Plant height", "setting": "[4]", "result": 101.5, "unit": "cm"}, {"measurement": "Productive tilling capacity", "setting": "[4]", "result": 1.57}, {"measurement": "Protein (N 5.7)", "setting": "[4]", "result": 14.88, "unit": "% dry basis"}, {"measurement": "Starch", "setting": "[4]", "result": 61.54, "unit": "% dry basis"}, {"measurement": "Weight of grains from main head", "setting": "[4]", "result": 1.76, "unit": "g"}, {"measurement": "Yield", "setting": "[4]", "result": 6.44, "unit": "t/ha"}, {"measurement": "Yield, % (comparing to control)", "setting": "[4]", "result": 131.9, "unit": "%"}, {"measurement": "1000 grains weight", "setting": "[5]", "result": 47.07, "unit": "g"}, {"measurement": "Gluten", "setting": "[5]", "result": 34.71, "unit": "% dry basis"}, {"measurement": "Main head length", "setting": "[5]", "result": 8.9, "unit": "cm"}, {"measurement": "Number of grains from main head", "setting": "[5]", "result": 37, "unit": "pcs"}, {"measurement": "Number of stems", "setting": "[5]", "result": 752, "unit": "pcs/m^2"}, {"measurement": "Plant height", "setting": "[5]", "result": 105.1, "unit": "cm"}, {"measurement": "Productive tilling capacity", "setting": "[5]", "result": 1.21}, {"measurement": "Protein (N 5.7)", "setting": "[5]", "result": 14.92, "unit": "% dry basis"}, {"measurement": "Starch", "setting": "[5]", "result": 61.72, "unit": "% dry basis"}, {"measurement": "Weight of grains from main head", "setting": "[5]", "result": 1.79, "unit": "g"}, {"measurement": "Yield", "setting": "[5]", "result": 6.49, "unit": "t/ha"}, {"measurement": "Yield, % (comparing to control)", "setting": "[5]", "result": 133.0, "unit": "%"}, {"measurement": "1000 grains weight", "setting": "[6]", "result": 46.51, "unit": "g"}, {"measurement": "Gluten", "setting": "[6]", "result": 33.81, "unit": "% dry basis"}, {"measurement": "Main head length", "setting": "[6]", "result": 8.8, "unit": "cm"}, {"measurement": "Number of grains from main head", "setting": "[6]", "result": 37, "unit": "pcs"}, {"measurement": "Number of stems", "setting": "[6]", "result": 396, "unit": "pcs/m^2"}, {"measurement": "Plant height", "setting": "[6]", "result": 104.1, "unit": "cm"}, {"measurement": "Productive tilling capacity", "setting": "[6]", "result": 1.48}, {"measurement": "Protein (N 5.7)", "setting": "[6]", "result": 14.73, "unit": "% dry basis"}, {"measurement": "Starch", "setting": "[6]", "result": 61.27, "unit": "% dry basis"}, {"measurement": "Weight of grains from main head", "setting": "[6]", "result": 1.71, "unit": "g"}, {"measurement": "Yield", "setting": "[6]", "result": 6.41, "unit": "t/ha"}, {"measurement": "Yield, % (comparing to control)", "setting": "[6]", "result": 131.4, "unit": "%"}]}
